Source: patent US10668048B2, “Compounds for inhibiting bacterial growth via phosphatidylglycerol binding” (Wichita State University, priority 2016, dated 2020)
In brackets after ≈: the same amount, converted by molar mass.

Columns and labels:
[1] = Liptin-PG binding in solution (ITC and/or 1H NMR titration); conditions: for binding constant for PG (Ka): in DMF solution, prior research
Description: The lipid binding ability of liptins 1-3 (FIG. 2A) have been investigated in solution using isothermal titration calorimetry (ITC) and/or ^1H NMR. Stoichiometry of binding was accomplished with Job plots using ^1H NMR. […] The use of organic solvents allowed the determination of binding motif using ^1H NMR.
Liptins 1b, 1e, 2c, 2d, 3a, 3c in DMF/5% CHCl3; 3e in 50% DMSO, 45% CHCl3, 5% CH3OH.
Liptins 1h and 1i 40% DMSO, 60% CHCl3, 3f in 20% DMSO, 80% CHCl3.

Klebsiella pneumoniae [2] = assay: MIC in cation-adjusted Muller Hinton culture; format: cell-based; conditions: no growth after 24 hours
Description: (§1) MICs were determined in cation-adjusted Muller Hinton culture. Standard CLSI protocol for serial dilutions of liptin concentrations were used to determine the MIC, starting at 0.01 OD. Two different experimental cultures were used and each data point measured in triplicate.

Pseudomonas aeruginosa = assay: MIC in cation-adjusted Muller Hinton culture; format: cell-based; conditions: no growth after 24 hours
Description: as §1

Escherichia coli [3] = assay: MIC in cation-adjusted Muller Hinton culture; format: cell-based; conditions: no growth after 24 hours
Description: as §1

Mycobacterium smegmatis [4] = assay: MIC in cation-adjusted Muller Hinton culture; format: cell-based; conditions: no growth after 24 hours
Description: as §1

Acinetobacter baumannii [5] = assay: MIC in cation-adjusted Muller Hinton culture; format: cell-based; conditions: no growth after 24 hours
Description: as §1

Staphylococcus aureus [6] = assay: MIC in cation-adjusted Muller Hinton culture; format: cell-based; conditions: no growth after 24 hours
Description: as §1

MRSA [7] = assay: MIC in cation-adjusted Muller Hinton culture; format: cell-based, Methicillin-resistant S. aureus; conditions: no growth after 24 hours
Description: as §1

Klebsiella pneumoniae [8] = assay: MBC in cation-adjusted Muller Hinton culture; format: cell-based
Description: (§2) Minimum bactericidal concentration (MBC) were determined in cation-adjusted Muller Hinton culture. Standard CLSI protocol for serial dilutions of liptin concentrations were used to determine the MBC, starting at 0.01 OD. Two different experimental cultures were used and each data point measured in triplicate.

Escherichia coli [9] = assay: MBC in cation-adjusted Muller Hinton culture; format: cell-based
Description: as §2

Mycobacterium smegmatis [10] = assay: MBC in cation-adjusted Muller Hinton culture; format: cell-based
Description: as §2

Acinetobacter baumannii [11] = assay: MBC in cation-adjusted Muller Hinton culture; format: cell-based
Description: as §2

Staphylococcus aureus [12] = assay: MBC in cation-adjusted Muller Hinton culture; format: cell-based
Description: as §2

MRSA [13] = assay: MBC in cation-adjusted Muller Hinton culture; format: cell-based, Methicillin-resistant S. aureus
Description: as §2

[14] = system: A549 (lung carcinoma epithelial) cells; assay: LDH release cytotoxicity assay; format: cell-based; conditions: near 15 μM
Description: (§3) Toxicity Studies of human HeLa (vaginal carcinoma) and A549 (lung carcinoma epithelial) cells with Liptins 1h and 1k.
(§4) Eukaryote cell toxicity was determined using a Pierce LDH assay kit including the Chemical Compound-Mediated Cytotoxicity assay. This kit measures cell death by measuring the amount of lactate dehydrogenase released from cells. Lactate dehydrogenase (LDH) is a cytosolic enzyme present in many different types of cells. When the plasma membrane is damaged, LDH is released into cell culture media. The released LDH can be quantified by a coupled enzymatic reaction. First, LDH catalyzes the conversion of lactate to pyruvate via reduction of NAD+ to NADH. Second, diaphorase uses NADH to reduce a tetrazolium salt (INT) to a red formazan product. Therefore, the level of formazan formation is directly proportional to the amount of released LDH in the medium.

[15] = system: human HeLa (vaginal carcinoma) cells; assay: LDH release cytotoxicity assay; format: cell-based; conditions: up to about 15 μM
Description: as §3, §4

[16] = system: Gram-positive and Gram-negative bacteria; assay: Growth curves in BHI culture with liptins 1h-k; format: cell-based; conditions: one inoculation
Description: Growth curves in BHI culture were generated (not shown) from liquid shake-flask cultures using absorbance measurements at 600 nm at different concentrations of liptins 1h-k. Uninoculated control flasks were used as blanks. Absorbance values of 0.1 OD unit was considered reasonable threshold for positive growth. The use of the nutrient-rich BHI culture allowed us to measure the effects of the small structural differences in liptins 1h-k on bacterial growth rates over long periods of time. […] Liptin exposure appears to stop bacterial growth, as evidenced by long lag phases, which increase with liptin concentration, and growth rates and maximum cell densities are decreased with liptin treatment.

S. aureus = assay: BacLight Bacterial Membrane Potential kit, plasma membrane depolarization; format: cell-based; conditions: one half the liptins' MICs; concentration dependent
Description: (§5) The Molecular Probes BacLight® Bacterial Membrane Potential kit was used to detect changes in the polarization of the bacterial plasma membrane upon inoculation of bacteria with varying concentrations of liptins 1h or 1k. […] CCCP (carbonyl cyanide 3-chlorophenylhydrazone) is a proton ionophore that destroys plasma membrane potential and as such is a positive control. […] With plasma membrane depolarization the bacterial cell loses its ability to synthesize ATP and proteins. Additionally loss of membrane potential stops the ability for cell replication due to an inability for proper placement of divisome proteins in the plasma membrane. […] Thus, it is possible that the liptin's mechanism of action is a result of their deleterious effect on the functioning of electron transport proteins found in the plasma membrane.

E. coli = assay: as above; format: cell-based; conditions: one half the liptins' MICs; concentration dependent
Description: as §5

MRSA [17] = assay: Live-Dead stain (BacLight SYTO 9 / propidium iodide); format: cell-based, Methicillin-resistant S. aureus; conditions: 90 minutes
Description: (§6) Molecular Probes BacLight© kits containing the SYTO 9 green-fluorescent dye and propidium iodide red-fluorescent dye were used to detect live or dead bacteria after ninety minute exposure of bacteria to liptins 1h or 1k. Bacteria in Muller Hinton culture were grown to an OD=0.3, were inoculated with liptins 1h and 1k and after ninety minutes stained with a mixture of the above dyes and affixed to a slide to be examined under a light microscope (40×) to determine the number of live and dead cells (green colored cells considered alive and red-colored cells considered dead). Data was calculated based upon an average of 5 different plate counts from each slide, and is based on a percent of total bacteria counted (live and dead). Control sample contains no liptin.

Klebsiella pneumoniae [18] = assay: as above; format: cell-based; conditions: 90 minutes
Description: as §6

Escherichia coli [19] = assay: as above; format: cell-based; conditions: 10 μM, 90 minutes
Description: as §6

Mycobacterium smegmatis [20] = assay: as above; format: cell-based; conditions: 5 μM, 90 minutes
Description: as §6

Acinetobacter baumannii [21] = assay: as above; format: cell-based; conditions: 5 μM, 90 minutes
Description: as §6

Staphylococcus aureus [22] = assay: as above; format: cell-based; conditions: 5 μM, 90 minutes
Description: as §6

[23] = NMR titrations, DMF/5% CHCl3, 1:1 binding stoichiometry
[24] = ITC or NMR titrations, 40% DMSO, 60% CHCl3
[25] = ITC, DMF/5% CHCl3, 1:1 binding stoichiometry

## Cc1ccc2c(c1)CNCCCCNCc1cc(C)ccc1OCCCCO2 [Liptin 1e]
[1]; [23]
  Ka: 250 M⁻¹

## O=C(NCc1cc(CCCO)cc2c1OCCCCOc1c(cc(CCCO)cc1CNC(=O)Nc1ccccc1)CCC2)Nc1ccccc1 [Liptin 2a]
[1]
  binding constant for PG (Ka): no significant binding

## CCCCCCNC(=O)CCc1ccc2c(c1)CNCCCNCc1cc(CCC(=O)NCCCCCC)ccc1OCCCCO2 [Liptin 1i]
Klebsiella pneumoniae [2]
  MIC: 4 µM (≈ 2.6 µg/mL)
Pseudomonas aeruginosa
  MIC: 12 µM (≈ 7.81 µg/mL)
Escherichia coli [3]
  MIC: 3 µM (≈ 1.95 µg/mL)
Mycobacterium smegmatis [4]
  MIC: 3 µM (≈ 1.95 µg/mL)
Acinetobacter baumannii [5]
  MIC: 3.5 µM (≈ 2.28 µg/mL)
Staphylococcus aureus [6]
  MIC: 3 µM (≈ 1.95 µg/mL)
[1]; [24]
  Ka: 1500 M⁻¹
MRSA [7]
  MIC: 3.5 µM (≈ 2.28 µg/mL)
Klebsiella pneumoniae [8]
  MBC: 12 µM (≈ 7.81 µg/mL)
Escherichia coli [9]
  MBC: 14 µM (≈ 9.11 µg/mL)
Mycobacterium smegmatis [10]
  MBC: 10.5 µM (≈ 6.83 µg/mL)
Acinetobacter baumannii [11]
  MBC: 11.5 µM (≈ 7.49 µg/mL)
Staphylococcus aureus [12]
  MBC: 10.5 µM (≈ 6.83 µg/mL)
MRSA [13]
  MBC: 11.5 µM (≈ 7.49 µg/mL)

## O=C(CNCc1ccccc1)Nc1ccccc1-c1c2nc(c(-c3ccccc3NC(=O)CNCc3ccccc3)c3ccc([nH]3)c(-c3ccccc3NC(=O)CNCc3ccccc3)c3nc(c(-c4ccccc4NC(=O)CNCc4ccccc4)c4ccc1[nH]4)C=C3)C=C2 [Liptin 3f]
[1]; NMR titrations, 20% DMSO, 80% CHCl3
  Ka: 2800 M⁻¹

## O=C(NCCOCc1ccccc1)Nc1ccccc1-c1c2nc(c(-c3ccccc3NC(=O)NCCOCc3ccccc3)c3ccc([nH]3)c(-c3ccccc3NC(=O)NCCOCc3ccccc3)c3nc(c(-c4ccccc4NC(=O)NCCOCc4ccccc4)c4ccc1[nH]4)C=C3)C=C2 [Liptin 3a]
[1]; [25]
  Ka: 2100 M⁻¹

## CCOCCOCCOCCNC(=O)Nc1ccccc1-c1c2nc(c(-c3ccccc3NC(=O)NCCOCCOCCOCC)c3ccc([nH]3)c(-c3ccccc3NC(=O)NCCOCCOCCOCC)c3nc(c(-c4ccccc4NC(=O)NCCOCCOCCOCC)c4ccc1[nH]4)C=C3)C=C2 [Liptin 3c]
[1]; [25]
  Ka: 3700 M⁻¹

## O=C(NCc1cc(CCCO)cc2c1OCCCOc1c(cc(CCCO)cc1CNC(=O)Nc1ccccc1)CCC2)Nc1ccccc1 [Liptin 2b]
[1]
  binding constant for PG (Ka): no significant binding

## CCCCCCNC(=O)CCc1ccc2c(c1)CNCCCNCc1cc(CCC(=O)NCCCCCC)ccc1OCCCCCO2 [Liptin 1h]
Klebsiella pneumoniae [2]
  MIC: 3 µM (≈ 1.99 µg/mL)
Pseudomonas aeruginosa
  MIC: 9 µM (≈ 5.98 µg/mL)
Escherichia coli [3]
  MIC: 2 µM (≈ 1.33 µg/mL)
Mycobacterium smegmatis [4]
  MIC: 2.5 µM (≈ 1.66 µg/mL)
Acinetobacter baumannii [5]
  MIC: 2.5 µM (≈ 1.66 µg/mL)
Staphylococcus aureus [6]
  MIC: 2.5 µM (≈ 1.66 µg/mL)
[14]
  cytotoxicity (LDH release): over 25%
[15]
  cell toxicity (LDH release): large toxicity
[16]
  antibacterial activity from growth curves: most potent
[1]; [24]
  Ka: 4600 M⁻¹
MRSA [7]
  MIC: 3 µM (≈ 1.99 µg/mL)
S. aureus
  plasma membrane depolarization (red/green fluorescence ratio): large membrane depolarization
E. coli
  plasma membrane depolarization (red/green fluorescence ratio): large membrane depolarization
Klebsiella pneumoniae [8]
  MBC: 8.5 µM (≈ 5.65 µg/mL)
Escherichia coli [9]
  MBC: 9 µM (≈ 5.98 µg/mL)
Mycobacterium smegmatis [10]
  MBC: 11.5 µM (≈ 7.65 µg/mL)
Acinetobacter baumannii [11]
  MBC: 8.5 µM (≈ 5.65 µg/mL)
Staphylococcus aureus [12]
  MBC: 11 µM (≈ 7.31 µg/mL)
MRSA [17]; 5 μM
  Dead: 72%
  Live: 28%
MRSA [17]; 10 μM
  Dead: 84%
  Live: 15%
MRSA [13]
  MBC: 10 µM (≈ 6.65 µg/mL)
Klebsiella pneumoniae [18]; 5 μM
  Dead: 67%
  Live: 33%
Klebsiella pneumoniae [18]; 10 μM
  Dead: 100%
  Live: 0%
Escherichia coli [19]
  Dead: 75%
  Live: 35%
Mycobacterium smegmatis [20]
  Dead: 93%
  Live: 7%
Acinetobacter baumannii [21]
  Dead: 88%
  Live: 12%
Staphylococcus aureus [22]
  Dead: 39%
  Live: 61%

## Cc1ccc2c(c1)CNCCCNCc1cc(C)ccc1OCCCCCO2 [Liptin 1b]
[1]; [23]
  Ka: 200 M⁻¹

## CCCCCCNC(=O)CCc1ccc2c(c1)CNCCCCNCc1cc(CCC(=O)NCCCCCC)ccc1OCCCCO2 [Liptin 1j]
Klebsiella pneumoniae [2]
  MIC: 3.5 µM (≈ 2.33 µg/mL)
Pseudomonas aeruginosa
  MIC: 14 µM (≈ 9.31 µg/mL)
Escherichia coli [3]
  MIC: 3.5 µM (≈ 2.33 µg/mL)
Mycobacterium smegmatis [4]
  MIC: 3.5 µM (≈ 2.33 µg/mL)
Acinetobacter baumannii [5]
  MIC: 4 µM (≈ 2.66 µg/mL)
Staphylococcus aureus [6]
  MIC: 4 µM (≈ 2.66 µg/mL)
MRSA [7]
  MIC: 4.5 µM (≈ 2.99 µg/mL)
Klebsiella pneumoniae [8]
  MBC: 13 µM (≈ 8.64 µg/mL)
Escherichia coli [9]
  MBC: 15 µM (≈ 9.97 µg/mL)
Mycobacterium smegmatis [10]
  MBC: 12 µM (≈ 7.98 µg/mL)
Acinetobacter baumannii [11]
  MBC: 12.5 µM (≈ 8.31 µg/mL)
Staphylococcus aureus [12]
  MBC: 15.5 µM (≈ 10.3 µg/mL)
MRSA [13]
  MBC: 15 µM (≈ 9.97 µg/mL)
